Reference: US20040138199A1, “Benzoxazines and derivatives thereof as therapeutic agents” (priority 2002, published 2004)

Target: T1, p101/p110γ protein (PI3Kγ) (Homo sapiens, UniProt P48736)
T1 construct: HA; made in house; host or cells: Spodoptera frugiperda (Sf9) cells, baculovirus coinfection
Assay: PI3Kγ In Vitro Kinase Assay
Format: biochemical
Conditions: purified recombinant p101/p110γ with G protein β1/γ2 subunits; 20 μM ATP, 25 μM PIP2; 20 minutes at room temperature; radioactive PIP3 readout
Outline: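 Baculovirus/Sf9-expressed p101/p110γ (~2.7 nM) with G protein β1/γ2, 20 μM ATP plus [γ-32P]ATP, PIP2/PE micelles (25 μM PIP2, 300 μM PE, 10 mM MgCl2) in HEPES buffer. Reaction 20 min at room temperature, stopped with H3PO4; radiolabelled PIP3 counted on filters to derive IC50 (μM).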

T1 sequence (P48736 whole entry, species assumed): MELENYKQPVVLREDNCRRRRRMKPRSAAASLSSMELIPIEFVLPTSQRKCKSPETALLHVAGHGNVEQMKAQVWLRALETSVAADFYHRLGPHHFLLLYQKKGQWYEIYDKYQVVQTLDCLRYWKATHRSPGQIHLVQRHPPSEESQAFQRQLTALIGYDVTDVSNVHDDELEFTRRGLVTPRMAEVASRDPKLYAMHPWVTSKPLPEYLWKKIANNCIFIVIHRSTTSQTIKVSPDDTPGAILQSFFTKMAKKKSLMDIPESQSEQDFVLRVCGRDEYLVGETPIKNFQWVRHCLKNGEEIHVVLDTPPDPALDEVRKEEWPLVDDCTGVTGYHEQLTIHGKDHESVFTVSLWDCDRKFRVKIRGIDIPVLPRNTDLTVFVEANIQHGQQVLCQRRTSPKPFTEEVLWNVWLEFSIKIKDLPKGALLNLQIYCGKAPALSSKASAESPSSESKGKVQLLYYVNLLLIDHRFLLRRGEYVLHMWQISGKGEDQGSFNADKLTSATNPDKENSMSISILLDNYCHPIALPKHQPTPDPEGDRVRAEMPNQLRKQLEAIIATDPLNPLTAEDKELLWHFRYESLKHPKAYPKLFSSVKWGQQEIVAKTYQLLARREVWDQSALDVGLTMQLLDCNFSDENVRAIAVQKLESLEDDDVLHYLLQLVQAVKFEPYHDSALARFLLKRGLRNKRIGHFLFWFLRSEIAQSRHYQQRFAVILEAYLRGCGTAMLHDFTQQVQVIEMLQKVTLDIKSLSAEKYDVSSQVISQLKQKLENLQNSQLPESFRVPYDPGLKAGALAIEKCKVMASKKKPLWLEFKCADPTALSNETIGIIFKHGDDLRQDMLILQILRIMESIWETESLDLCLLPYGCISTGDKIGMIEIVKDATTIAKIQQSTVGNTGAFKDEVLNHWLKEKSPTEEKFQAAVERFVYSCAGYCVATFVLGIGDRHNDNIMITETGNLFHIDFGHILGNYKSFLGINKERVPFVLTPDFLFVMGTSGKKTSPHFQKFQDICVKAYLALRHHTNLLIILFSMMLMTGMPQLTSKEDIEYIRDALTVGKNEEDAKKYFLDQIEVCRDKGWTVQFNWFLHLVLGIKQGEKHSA
T1 sequence (Q8WYR1 whole entry partner, species assumed): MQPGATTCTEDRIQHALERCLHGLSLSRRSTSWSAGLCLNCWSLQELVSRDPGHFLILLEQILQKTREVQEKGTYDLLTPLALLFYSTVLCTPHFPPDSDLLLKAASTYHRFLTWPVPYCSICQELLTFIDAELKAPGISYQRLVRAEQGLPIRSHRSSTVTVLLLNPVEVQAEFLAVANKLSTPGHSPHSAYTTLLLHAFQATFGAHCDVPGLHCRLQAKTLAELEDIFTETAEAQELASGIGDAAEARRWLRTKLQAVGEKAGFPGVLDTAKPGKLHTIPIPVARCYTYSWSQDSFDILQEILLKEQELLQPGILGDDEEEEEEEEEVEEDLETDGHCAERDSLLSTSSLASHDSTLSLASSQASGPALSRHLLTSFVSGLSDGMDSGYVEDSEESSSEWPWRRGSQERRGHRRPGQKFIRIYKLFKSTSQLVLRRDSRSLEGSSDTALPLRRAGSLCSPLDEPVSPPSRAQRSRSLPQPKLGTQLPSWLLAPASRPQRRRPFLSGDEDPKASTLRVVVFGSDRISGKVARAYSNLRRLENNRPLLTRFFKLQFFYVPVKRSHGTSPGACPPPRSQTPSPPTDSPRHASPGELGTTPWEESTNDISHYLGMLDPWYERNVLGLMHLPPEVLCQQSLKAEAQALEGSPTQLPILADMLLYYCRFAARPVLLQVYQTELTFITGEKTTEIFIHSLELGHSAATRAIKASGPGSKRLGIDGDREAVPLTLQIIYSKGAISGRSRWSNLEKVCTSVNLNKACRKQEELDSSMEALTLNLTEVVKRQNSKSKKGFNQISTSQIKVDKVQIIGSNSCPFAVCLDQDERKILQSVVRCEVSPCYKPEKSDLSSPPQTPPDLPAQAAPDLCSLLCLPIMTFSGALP

SMILES | IC50 [nM]
O=C1NC(=S)SC1=Cc1ccc2c(c1)N(C(=O)Nc1ccccc1)CCO2 [Example 58, 6-(4-Oxo-2-thioxo-thiazolidin-5-ylidenemethyl)-2,3-dihydro-1,4-benzoxazine-4-carboxylic acid phenylamide] | 32
COc1cccc(NC(=O)N2CCOc3ccc(C=C4SC(=S)NC4=O)cc32)c1 [Example 59, 6-(4-Oxo-2-thioxo-thiazolidin-5-ylidenemethyl)-2,3-dihydro-1,4-benzoxazine-4-carboxylic acid (3-methoxy-phenyl)-amide] | 125
O=C1NC(=S)SC1=Cc1ccc2c(c1)N(C(=O)c1ccc3nonc3c1)CCO2 [Example 61, 5-[4-(Benzofurazan-5-carbonyl)-3,4-dihydro-2H-1,4-benzoxazin-6-ylmethylene]-2-thioxo-thiazolidin-4-one] | 560
CCCCCCCCNC(=O)N1CCOc2ccc(C=C3SC(=S)NC3=O)cc21 [Example 62, 6-(4-Oxo-2-thioxo-thiazolidin-5-ylidenemethyl)-2,3-dihydro-1,4-benzoxazine-4-carboxylic acid octylamide] | 4000
O=C1NC(=S)SC1=Cc1ccc2c(c1)N(C(=O)c1cc(Cl)cc(Cl)c1)CCO2 [Example 63, 5-[4-(3,5-Dichloro-benzoyl)-3,4-dihydro-2H-1,4-benzoxazin-6-ylmethylene]-2-thioxo-thiazolidin-4-one] | 145
O=C1NC(=S)SC1=Cc1ccc2c(c1)N(C(=O)NCCc1cccs1)CCO2 [Example 64, 6-(4-Oxo-2-thioxo-thiazolidin-5-ylidenemethyl)-2,3-!dihydro-1,4-benzoxazine-4-carboxylic acid (2-thiophen-2-yl-ethyl)-amide] | 4000
O=C1NC(=S)SC1=Cc1ccc2c(c1)N(C(=O)NCCc1ccccc1)CCO2 [Example 65, 6-(4-Oxo-2-thioxo-thiazolidin-5-ylidenemethyl)-2,3-dihydro-1,4-benzoxazine-4-carboxylic acid phenethyl-amide] | 17
O=C1NC(=S)SC1=Cc1ccc2c(c1)N(C(=O)Nc1ccc(Oc3ccccc3)cc1)CCO2 [Example 66, 6-(4-Oxo-2-thioxo-thiazolidin-5-ylidenemethyl)-2,3-dihydro-1,4-benzoxazine-4-carboxylic acid (4-phenoxy-phenyl)-amide] | 80
COc1cc(NC(=O)N2CCOc3ccc(C=C4SC(=S)NC4=O)cc32)cc(OC)c1 [Example 67, 6-(4-Oxo-2-thioxo-thiazolidin-5-ylidenemethyl)-2,3-dihydro-1,4-benzoxazine-4-carboxylic acid (3,5-dimethoxy-phenyl)-amide] | 39
O=C1NC(=S)SC1=Cc1ccc2c(c1)N(C(=O)NC1CCCC1)CCO2 [Example 68, 6-(4-Oxo-2-thioxo-thiazolidin-5-ylidenemethyl)-2,3-dihydro-1,4-benzoxazine-4-carboxylic acid cyclopentylamide] | 8
O=C1NC(=S)SC1=Cc1ccc2c(c1)N(C(=O)Oc1cccc3ccccc13)CCO2 [Example 69, 6-(4-Oxo-2-thioxo-thiazolidin-5-ylidenemethyl)-2,3-dihydro-1,4-benzoxazine-4-carboxylic acid naphthalen-1-yl ester] | 6
O=C1NC(=S)SC1=Cc1ccc2c(c1)N(C(=O)CCc1ccccc1)CCO2 [Example 70, 5-[4-(3-Phenyl-propionyl)-3,4-dihydro-2H-1,4-benzoxazin-6-ylmethylene]-2-thioxo-thiazolidin-4-one] | 31
O=C1NC(=S)SC1=Cc1ccc2c(c1)N(C(=O)c1ccc3c(c1)OCO3)CCO2 [Example 71, 5-[4-(1,3-Benzodioxole-5-carbonyl)-3,4-dihydro-2H-1,4-benzoxazin-6-ylmethylene]-2-thioxo-thiazolidin-4-one] | 935
CS(=O)(=O)c1ccc(C(=O)N2CCOc3ccc(C=C4SC(=S)NC4=O)cc32)cc1 [Example 72] | 174
COc1cc(CC(=O)N2CCOc3ccc(C=C4SC(=S)NC4=O)cc32)cc(OC)c1 [Example 73] | 115
CN1CCN(Cc2ccc(C(=O)N3CCOc4ccc(C=C5SC(=S)NC5=O)cc43)cc2)CC1 [Example 74] | 115
COc1ccc(NC(=O)N2CCOc3ccc(C=C4SC(=S)NC4=O)cc32)cc1OC [Example 75, 6-(4-Oxo-2-thioxo-thiazolidin-5-ylidenemethyl)-2,3-dihydro-benzo[14]oxazine-4-carboxylic acid (3,4-dimethoxy-phenyl)-aniide] | 14
O=C1NC(=S)SC1=Cc1ccc2c(c1)N(C(=O)Nc1cc(Cl)cc(Cl)c1)CCO2 [Example 76, 6-(4-Oxo-2-thioxo-thiazolidin-5-ylidenemethyl)-2,3-dihydro-benzo[14]oxazine-4-carboxylic acid (3,5-dichloro-phenyl)-amide] | 33
O=C1NC(=S)SC1=Cc1ccc2c(c1)N(C(=O)Nc1ccc(Cl)cc1)CCO2 [Example 77, 6-(4-Oxo-2-thioxo-thiazolidin-5-ylidenemethyl)-2,3-dihydro-benzo[1,4]oxazine-4-carboxylic acid (4-chloro-phenyl)-amide] | 2

SMILES | IC50 [nM]
O=C1NC(=S)SC1=Cc1ccc2c(c1)N(C(=O)Nc1ccc(Cl)c(Cl)c1)CCO2 [Example 78, 6-(4-Oxo-2-thioxo-thiazolidin-5-ylidenemethyl)-2,3-dihydro-benzo[1,4]oxazine-4-carboxylic acid (3,4-dichloro-phenyl)-amide] | 5
Cc1cc(C)cc(NC(=O)N2CCOc3ccc(C=C4SC(=S)NC4=O)cc32)c1 [Example 79, 6-(4-Oxo-2-thioxo-thiazolidin-5-ylidenemethyl)-2,3-dihydro-benzo[14]oxazine-4-carboxylic acid (3,5-dimethyl-phenyl)-amide] | 9
O=C1NC(=S)SC1=Cc1ccc2c(c1)N(C(=O)Nc1cccc(Cl)c1)CCO2 [Example 80, 6-(4-Oxo-2-thioxo-thiazolidin-5-ylidenemethyl)-2,3-dihydro-benzo[1,4]oxazine-4-carboxylic acid (3-chloro-phenyl)-amide] | 2
CC(C)(C)c1cc(C(=O)N2CCOc3ccc(C=C4SC(=S)NC4=O)cc32)cc(C(C)(C)C)c1 [Example 81, 5-[4-(3,5-Di-tert-butyl-benzoyl)-3,4-dihydro-2H-benzo[1,4]oxazin-6-ethylene]-2-thioxo-thiazolidin-4-one] | 3760
O=C1NC(=S)SC1=Cc1ccc2c(c1)N(C(=O)CCCc1ccccc1)CCO2 [Example 82, 5-[4-(4-Phenyl-butryl)-3,4-dihydro-2H-benzo[1,4]oxazin-6-ethylene]-2-thioxo-thiazolidin-4-one] | 1
O=C1NC(=S)SC1=Cc1ccc2c(c1)N(C(=O)C1CCCCCC1)CCO2 [Example 83, 5-[4-Cycloheptanecarbonyl-3,4-dihydro-2H-benzo[1,4]oxazin-6-ethylene]-2-thioxo-thiazolidin-4-one] | 27
CC(C(=O)N1CCOc2ccc(C=C3SC(=S)NC3=O)cc21)c1ccccc1 (stereo not shown) [Example 84, 5-[4-(2-Phenyl-propionyl)-3,4-dihydro-2H-benzo[1,4]oxazin-6-ethylene]-2-thioxo-thiazolidin-4-one] | 84
CC1CCCC(C(=O)N2CCOc3ccc(C=C4SC(=S)NC4=O)cc32)C1 (stereo not shown) [Example 85, 5-[4-(3-Methyl-cyclohexanecarbonyl)-3,4-dihydro-2H-benzo[1,4]oxazin-6-ethylene]-2-thioxo-thiazolidin-4-one] | 12
CC(C)C(C)C(=O)N1CCOc2ccc(C=C3SC(=S)NC3=O)cc21 (stereo not shown) [Example 86, 5-[4-(2,3-Dimethyl-butyryl)-3,4-dihydro-2H-benzo[1,4]oxazin-6-ethylene]-2-thioxo-thiazolidin-4-one] | 179
CC1CCCCC1CCC(=O)N1CCOc2ccc(C=C3SC(=S)NC3=O)cc21 (stereo not shown) [Example 87] | 120
COc1ccc(C)cc1C(=O)N1CCOc2ccc(C=C3SC(=S)NC3=O)cc21 [Example 88, 5-[4-(2-Methoxy-5-methyl-benzoyl)-3,4-dihydro-2H-benzo[1,4]oxazin-6-ethylene]-2-thioxo-thiazolidin-4-one] | 465
Cc1ccc(F)c(C(=O)N2CCOc3ccc(C=C4SC(=S)NC4=O)cc32)c1 [Example 89, 5-[4-(2-Fluoro-5-methyl-benzoyl)-3,4-dihydro-2H-benzo[1,4]oxazin-6-ethylene]-2-thioxo-thiazolidin-4-one] | 200
CC(C(=O)N1CCOc2ccc(C=C3SC(=S)NC3=O)cc21)C(C)(C)C (stereo not shown) [Example 90, 2-Thioxo-5-[4-(2,3,3-trimethyl-butyryl)-3,4-dihydro-2H-benzo[1,4]oxazin-6-ethylene]-2-thioxo-thiazolidin-4-one] | 1030
CC1CCCCC1C(=O)N1CCOc2ccc(C=C3SC(=S)NC3=O)cc21 (stereo not shown) [Example 91, 5-[4-(2-Methyl-cyclohexanecarbonyl)-3,4-dihydro-2H-benzo[1,4]oxazin-6-ethylene]-2-thioxo-thiazolidin-4-one] | 90
CC(=O)N1CCOc2ccc(C=C3SC(=S)NC3=O)cc21 [Example 92, 5-(4-Acetyl-3,4-dihydro-2H-1,4-benzoxazin-6-ylmethylene)-2-thioxo-thiazolidin-4-one] | 33
CCC(=O)N1CCOc2ccc(C=C3SC(=S)NC3=O)cc21 [Example 93, 4-(4-Propionyl-3,4-dihydro-2H-1,4-benzoxazin-6-ylmethylene)-2-thioxo-thiazolidin-4-one] | 12
CCCC(=O)N1CCOc2ccc(C=C3SC(=S)NC3=O)cc21 [Example 94, 5-(4-Butyryl-3,4-dihydro-2H-1,4-benzoxazin-6-ylmethylene)-2-thioxo-thiazolidin-4-one] | 10
CCCCCC(=O)N1CCOc2ccc(C=C3SC(=S)NC3=O)cc21 [Example 95, 5-(4-Hexanoyl-3,4-dihydro-2H-1,4-benzoxazin-6-ylmethylene)-2-thioxo-thiazolidin-4-one] | 8
